This data set is described as follows: in vitro. As to conditions: human, hela cells, % viability.

This passage reports viability results from article PMC12040169 (PLOS Biology, 2025).

For `CCc1nn(CC(=O)N2CCC(C)CC2)c(=O)c2cc3occc3n12` [CBK283675], the viability at 28.5 h, 10 µM stood at 76.4%.
Turning to `Cc1cnc2[nH]c(C(F)(F)F)c(CN3CCN(C)CC3)c2c1` [CBK284765], the viability at 28.5 h, 10 µM is 92.3%.
As to `CCn1cc(C(=O)N2CCOC(C(=O)O)C2)c(=O)c2ccc(C)nc21` (stereo not drawn) [CBK307165], the viability at 28.5 h, 10 µM is 83.5%.
For the molecule `Cc1ccc(CN2C[C@@H]3CC[C@@](O)(c4ncccc4C)[C@@H]3C2)o1` [CBK285361], the viability at 28.5 h, 10 µM came to 82.6%.
For the molecule `COc1cccc(Cc2cccc(C3CCN(C(=O)Cc4c[nH]c5ccccc45)CC3)n2)c1` [CBK286145], the viability at 28.5 h, 10 µM was found to be 93.1%.
With `O=C(O)CCC(=O)Nc1cccc2ccccc12` [CBK260889], the viability at 28.5 h, 10 µM stood at 112%.
With `O=C(Cn1c(-c2ccc(F)cc2)cc2cccnc21)N1CCOCC1` [CBK285383], the viability at 28.5 h, 10 µM is 94.8%.
On to `O=c1[nH]c2ccccc2n1C1CCN(S(=O)(=O)c2ccc(OC(F)(F)F)cc2)CC1` [CBK149690], for which the viability at 28.5 h, 10 µM amounted to 93.8%.
Turning to `CC(=O)Nc1ccc2nc(NC(=O)c3ccc(C)cc3)sc2c1` [CBK287304], the viability at 28.5 h, 10 µM came out at 103%.
As to `Cc1cc(C(=O)N2CCN(C(=O)c3ccco3)CC2)n[nH]1` [CBK144447], the viability at 28.5 h, 10 µM stood at 98.9%.
Turning to `Cc1noc(C)c1Cc1ccc(C(=O)Nc2nc3ccccc3n2C)o1` [CBK299839], the viability at 28.5 h, 10 µM came to 85.6%.
Take `CS(=O)(=O)c1ccc(CN2C(=O)CC3(CCN(C(=O)c4ccc([N+](=O)[O-])cc4)CC3)C2=O)cc1` [CBK155019]: the viability at 28.5 h, 10 µM is 99%.
Still for that read-out and setting: next, `CC(=O)Nc1ccc(S(=O)(=O)N2CCN(c3cc4c(cc3[N+](=O)[O-])n(C)c(=O)n4C)CC2)cc1` [CBK267338]: 91.9%; `O=C(O)c1cc(S(=O)(=O)NC(CO)C(O)c2ccc([N+](=O)[O-])cc2)ccc1Br` (stereo not drawn) [CBK262515]: 104%.
In the case of `O=S1(=O)CCC(c2nnc(C3(c4ccc(Br)cc4)CCOCC3)o2)C1` (stereo not drawn) [CBK305513], the viability at 28.5 h, 10 µM was found to be 115%.
With `COc1ccc(OC(=O)c2cc(S(=O)(=O)N3CCOCC3)ccc2Cl)cc1` [CBK261655], the viability at 28.5 h, 10 µM is 88.9%.
On the same count and under the same terms, next, `COc1ccc(Br)cc1CN(CCc1ccc2c(c1)OCO2)Cc1cccnc1` [CBK263327G]: 96.8%.
As to `CC(N)c1cc2ccccc2o1` (stereo not drawn) [CBK001492C], where the note is “bulk resorufin, single well”, the viability at 28.5 h, 10 µM turned out to be 97.7%.
For `Cn1cc(C(C(=O)O)N2CCN(c3ccccc3)CC2)c2cc(C(=O)O)ccc21` (stereo not drawn) [CBK286627], the viability at 28.5 h, 10 µM is 115%.
As for `Cc1nc(C)c(CCC(=O)NC2CCSc3c(F)cccc32)c(=O)[nH]1` (stereo not drawn) [CBK295601], the viability at 28.5 h, 10 µM is 95.2%.
Regarding `CC(C)CSc1nc(O)cc(=O)n1Cc1ccccc1` [CBK291170], the viability at 28.5 h, 10 µM is 114%.
Consider `COCCn1cnnc1CN(C)C(=O)NCc1cc2ccccc2s1` [CBK306911], for which the viability at 28.5 h, 10 µM amounted to 98.6%.
The same measure, in the same setting: to `CCC(CN1CCN(C)CC1)NC(=O)Cc1coc2cc(C)ccc12` (stereo not drawn) [CBK282790] belongs 102%; to `Cc1nn(CCC(=O)NC(C)(C)CN2CCCC(C)C2)c(C)c1C` (stereo not drawn) [CBK282676], 91.4%; to `O=C(NCc1ccc(-c2csnn2)cc1)c1cccc(C(F)(F)F)c1` [CBK149293], 87.2%.
On the same count and under the same terms, next, `O=C1NC2(CCN(C(=O)CCc3ccc(-c4ccccc4)o3)CC2)Nc2ccccc21` [CBK286316]: 106%; `NS(=O)(=O)c1ccc(CCNC(=O)c2ccc3c(c2)OCCO3)cc1` [CBK268128]: 104%; `Cc1ncc(CN2CCCC(Cc3nc4ccccc4[nH]3)C2)s1` (stereo not drawn) [CBK281902]: 99.7%.
Take `O=S(=O)(Nc1cc(O[C@@H]2CCNC2)c2occc2c1)c1cc(F)c(Br)cc1F` [CBK073943C]: the viability at 28.5 h, 10 µM is 92%.
For `CC(C)CCN[C@H]1CO[C@H]2[C@@H]1OC[C@@H]2n1nnnc1-c1ccccc1` [CBK289537], the viability at 28.5 h, 10 µM stood at 88.1%.
`Cc1cccn2cc(CNC(=O)C(C)(C)C)nc12` [CBK304348]: the viability at 28.5 h, 10 µM turned out to be 83.9%.
On the same count and under the same terms, to `O=C(NNC(=O)c1ccc2c(c1)C(=O)N(Cc1ccco1)C2=O)c1cccnc1` [CBK267403] belongs 91%; to `O=C(C1CCC1)N1CCC(c2nnc(-c3ccsc3)o2)CC1` [CBK283405], 104%.
For the molecule `Cn1cc(Cl)c(C2CCCCCN2S(=O)(=O)c2ccc3[nH]c(=O)[nH]c(=O)c3c2)n1` (stereo not drawn) [CBK286408], the viability at 28.5 h, 10 µM turned out to be 89.3%.
`Cc1ccc2c(CC(=O)N3CCNCC3c3cnn(C)c3)coc2c1C` (stereo not drawn) [CBK304271C]: the viability at 28.5 h, 10 µM is 87%.
In the case of `O=C1/C(=C/c2ccc(OCc3ccccc3Cl)c(Cl)c2)SC(=S)N1Cc1cccnc1` [CBK264702], the viability at 28.5 h, 10 µM worked out at 92.4%.
Consider `O=C(O)c1cc(S(=O)(=O)NCc2ccco2)ccc1Br` [CBK306193], for which the viability at 28.5 h, 10 µM was 83.7%.
`COc1ccc(-c2cc(C(=O)OCC(=O)c3cccc4ccccc34)c3ccccc3n2)cc1` [CBK265513]: the viability at 28.5 h, 10 µM was found to be 96.7%.
Regarding `O=C(NC1CCCC1)c1cccnc1` [CBK200236], the viability at 28.5 h, 10 µM came out at 111%.
Same read-out and setting: to `O=C(NCc1ccccc1)c1ccc(N2CCOCC2)nc1` [CBK200244] belongs 96.3%; to `O=C1CCCN1CC(=O)N1CCCC1c1nc2ccccc2[nH]1` (stereo not drawn) [CBK282315], 86.3%; to `Cc1ccc2[nH]c3c(c2c1)CCNC31CCN(C(=O)Nc2c(C)noc2C)CC1` [CBK047071], 83.1%.
As for `Cc1ccc(C(=O)O)cc1NC(=O)c1cccc(C(=O)Nc2cc(C(=O)O)ccc2C)c1` [CBK262797], the viability at 28.5 h, 10 µM stood at 97.5%.
Take `Cc1cc(/C=N\NC(=O)c2cc3ccccc3cc2O)c(C)n1-c1ccccc1` [CBK261801]: the viability at 28.5 h, 10 µM was determined as 84.6%.
On to `Cc1cc(COC(=O)Nc2ccc(Cl)cc2)no1` [CBK086560], for which the viability at 28.5 h, 10 µM amounted to 93.4%.
Consider `Cn1nccc1NS(=O)(=O)c1ccc(-c2cnco2)s1` [CBK062088], for which the viability at 28.5 h, 10 µM amounted to 94.4%.
As for `CCCC12CN3CC(CCC)(CN(C1)C3c1ccc(O)c(OC)c1)C2=O` (stereo not drawn) [CBK265531], the viability at 28.5 h, 10 µM was 89%.
In the case of `Cn1cncc1CN1C2CCC1CC(O)(c1ccccc1F)C2` (stereo not drawn) [CBK282649], the viability at 28.5 h, 10 µM came out at 107%.
With `O=C(c1cncs1)N1CCn2nc(C(O)Cc3ccccc3)cc2C1` (stereo not drawn) [CBK306754], the viability at 28.5 h, 10 µM came out at 90.6%.
Take `C/C(CCS(=O)(=O)c1ccc(Br)cc1)=N\NC(N)=S` [CBK261370]: the viability at 28.5 h, 10 µM is 102%.
As for `CCc1c(C)nc2c(C)cccc2c1SCC(=O)O` [CBK263554], the viability at 28.5 h, 10 µM is 87.6%.
On the same count and under the same terms, to `CC1=CC(C)C2(COC(=O)Nc3ccccc3)COC(c3cccnc3)C1C2C` (stereo not drawn) [CBK262844] belongs 86.2%.
With `Cc1ccc(N2C(=O)NC(=O)/C(=C\c3ccc(OCC(=O)O)c(Br)c3)C2=O)cc1C` [CBK263899], the viability at 28.5 h, 10 µM (bulk resorufin, single well) was determined as 84%.
Consider `Cc1ccc(Cc2cnc(NC(=O)NCCN3CCOCC3)s2)cc1F` [CBK305449], for which the viability at 28.5 h, 10 µM came out at 93.6%.
As to `O=C(O)CC1S\C(=N/N=C\C=C/c2ccccc2)N(c2ccc(O)cc2)C1=O` (stereo not drawn) [CBK263688], the viability at 28.5 h, 10 µM worked out at 93%.
With `O=C(NCc1ccccc1)c1ccc(NC(=O)c2cc(-n3cnnc3)ccc2Cl)cc1` [CBK267896], the viability at 28.5 h, 10 µM was determined as 99.2%.
Regarding `CC(=O)c1ccc(NC(=O)N[C@H]2CO[C@H]3[C@@H]2OC[C@H]3OCC(N)=O)cc1` [CBK289460], the viability at 28.5 h, 10 µM was 117%.
For the molecule `Cc1ccc(C)c(NC(=O)C(Cc2ccccc2)N2C(=O)c3cc(Cl)c(Cl)cc3C2=O)c1` (stereo not drawn) [CBK264232], the viability at 28.5 h, 10 µM worked out at 109%.
For the molecule `CN1CCN(S(=O)(=O)c2cccc(C(F)(F)F)c2)CC1` [CBK062425], the viability at 28.5 h, 10 µM was 103%.
Regarding `Cc1cc(C)n(-c2ccccc2O)n1` [CBK026493], the viability at 28.5 h, 10 µM came to 102%.
Consider `CCn1c(=O)oc2cc(NC(=O)NCCN3CCCCC3CO)ccc21` (stereo not drawn) [CBK306565], for which the viability at 28.5 h, 10 µM was determined as 107%.
On the same count and under the same terms, next, `Cc1noc(C)c1CN(C)C(C)C(=O)Nc1nccs1` (stereo not drawn) [CBK304826]: 105%; `CCC(c1ccc2ccccc2c1)c1c(O)c2ccccc2oc1=O` (stereo not drawn) [CBK016681]: 96.7%.
Consider `O=S(=O)(Nc1ccc(C(O)(C(F)(F)F)C(F)(F)F)cc1)c1ccc(Cl)c(Cl)c1` [CBK062102], for which the viability at 28.5 h, 10 µM turned out to be 111%.
Still for that read-out and setting: next, `Cn1ccc(C(=O)NC(Cc2ccsc2)c2nccs2)cc1=O` (stereo not drawn) [CBK285143]: 87%.
In the case of `CN(C)CCCNC(=O)CCc1ccccc1` [CBK263806], the viability at 28.5 h, 10 µM came to 93%.
For `COc1cc(-c2cnc3[nH]c(=O)n([C@@H](CO)C(C)C)c3n2)cc(OC)c1OC` [CBK064471], the viability at 28.5 h, 10 µM was determined as 105%.
`CCn1c(C)nc2cc(NC(=O)c3c4c(nn3C)CCCC4)ccc21` [CBK281831]: the viability at 28.5 h, 10 µM came out at 93.8%.
`Cc1ccccc1OCc1nc(C#N)c(NCc2ccc3c(c2)OCO3)o1` [CBK073372]: the viability at 28.5 h, 10 µM worked out at 109%.
Turning to `Cc1ccc(-c2nn(CCC#N)cc2C(=O)N2CCCCC2)cc1` [CBK306119], the viability at 28.5 h, 10 µM was 89.6%.
With `O=C(Cn1c(=O)n(Cc2cccnc2)c(=O)c2ncccc21)NC1CCCC1` [CBK287666], the viability at 28.5 h, 10 µM came to 103%.
In the case of `S=c1[nH]nc(CSc2nc3ccccc3[nH]2)n1-c1ccccc1` [CBK267133], the viability at 28.5 h, 10 µM came to 87.3%.
On the same count and under the same terms, to `Cc1cc(C)n(CC(C)CNC(=O)Cc2csc(-c3ccco3)n2)n1` (stereo not drawn) [CBK305628] belongs 103%; to `O=C(CC(CN1CCN(c2ccccn2)CC1)C(=O)O)NC1CCCCC1` (stereo not drawn) [CBK286812], 87.7%.
With `COc1cc(OCc2ccccc2)ccc1CN1CCN(Cc2ccccc2)CC1` [CBK074766], the viability at 28.5 h, 10 µM turned out to be 88.1%.
On to `O=C(O)CCCC(=O)Nc1ccc(C(=O)O)cc1` [CBK261534], for which the viability at 28.5 h, 10 µM was 86.5%.
On to `CS(=O)(=O)Nc1ccc(C(=O)N2CC(=O)Nc3ccccc32)cc1` [CBK269827], for which the viability at 28.5 h, 10 µM came out at 90.8%.
`CN(C)S(=O)(=O)N1CCN(c2ccnc3cc(Cl)ccc23)CC1` [CBK269785]: the viability at 28.5 h, 10 µM was found to be 99.2%.

As usually defined, the viability is a read-out of living cells in per cent, often relative to untreated cells.
